{
  "source": "ChEMBL document CHEMBL4715821",
  "about": "“Discovery of 4-ethoxy-7H-pyrrolo[2,3-d]pyrimidin-2-amines as potent, selective and orally bioavailable LRRK2 inhibitors” (Bioorg Med Chem Lett, 2018)",
  "key": {"[1]": {"assay": "Dose normalized AUC (0 to t) in Han-Wistar rat blood at 10 mg/kg, po measured up to 7 hrs by UPLC-MS/MS analysis", "assay_type": "ADME, organism-based", "settings": "in vivo"}, "[2]": {"assay": "Unbound fraction in Han-Wistar rat brain at 10 mg/kg, po", "assay_type": "ADME, organism-based"}, "[3]": {"target": "Leucine-rich repeat serine/threonine-protein kinase 2 (Homo sapiens, UniProt Q5S007)", "sequence (Q5S007 whole entry)": "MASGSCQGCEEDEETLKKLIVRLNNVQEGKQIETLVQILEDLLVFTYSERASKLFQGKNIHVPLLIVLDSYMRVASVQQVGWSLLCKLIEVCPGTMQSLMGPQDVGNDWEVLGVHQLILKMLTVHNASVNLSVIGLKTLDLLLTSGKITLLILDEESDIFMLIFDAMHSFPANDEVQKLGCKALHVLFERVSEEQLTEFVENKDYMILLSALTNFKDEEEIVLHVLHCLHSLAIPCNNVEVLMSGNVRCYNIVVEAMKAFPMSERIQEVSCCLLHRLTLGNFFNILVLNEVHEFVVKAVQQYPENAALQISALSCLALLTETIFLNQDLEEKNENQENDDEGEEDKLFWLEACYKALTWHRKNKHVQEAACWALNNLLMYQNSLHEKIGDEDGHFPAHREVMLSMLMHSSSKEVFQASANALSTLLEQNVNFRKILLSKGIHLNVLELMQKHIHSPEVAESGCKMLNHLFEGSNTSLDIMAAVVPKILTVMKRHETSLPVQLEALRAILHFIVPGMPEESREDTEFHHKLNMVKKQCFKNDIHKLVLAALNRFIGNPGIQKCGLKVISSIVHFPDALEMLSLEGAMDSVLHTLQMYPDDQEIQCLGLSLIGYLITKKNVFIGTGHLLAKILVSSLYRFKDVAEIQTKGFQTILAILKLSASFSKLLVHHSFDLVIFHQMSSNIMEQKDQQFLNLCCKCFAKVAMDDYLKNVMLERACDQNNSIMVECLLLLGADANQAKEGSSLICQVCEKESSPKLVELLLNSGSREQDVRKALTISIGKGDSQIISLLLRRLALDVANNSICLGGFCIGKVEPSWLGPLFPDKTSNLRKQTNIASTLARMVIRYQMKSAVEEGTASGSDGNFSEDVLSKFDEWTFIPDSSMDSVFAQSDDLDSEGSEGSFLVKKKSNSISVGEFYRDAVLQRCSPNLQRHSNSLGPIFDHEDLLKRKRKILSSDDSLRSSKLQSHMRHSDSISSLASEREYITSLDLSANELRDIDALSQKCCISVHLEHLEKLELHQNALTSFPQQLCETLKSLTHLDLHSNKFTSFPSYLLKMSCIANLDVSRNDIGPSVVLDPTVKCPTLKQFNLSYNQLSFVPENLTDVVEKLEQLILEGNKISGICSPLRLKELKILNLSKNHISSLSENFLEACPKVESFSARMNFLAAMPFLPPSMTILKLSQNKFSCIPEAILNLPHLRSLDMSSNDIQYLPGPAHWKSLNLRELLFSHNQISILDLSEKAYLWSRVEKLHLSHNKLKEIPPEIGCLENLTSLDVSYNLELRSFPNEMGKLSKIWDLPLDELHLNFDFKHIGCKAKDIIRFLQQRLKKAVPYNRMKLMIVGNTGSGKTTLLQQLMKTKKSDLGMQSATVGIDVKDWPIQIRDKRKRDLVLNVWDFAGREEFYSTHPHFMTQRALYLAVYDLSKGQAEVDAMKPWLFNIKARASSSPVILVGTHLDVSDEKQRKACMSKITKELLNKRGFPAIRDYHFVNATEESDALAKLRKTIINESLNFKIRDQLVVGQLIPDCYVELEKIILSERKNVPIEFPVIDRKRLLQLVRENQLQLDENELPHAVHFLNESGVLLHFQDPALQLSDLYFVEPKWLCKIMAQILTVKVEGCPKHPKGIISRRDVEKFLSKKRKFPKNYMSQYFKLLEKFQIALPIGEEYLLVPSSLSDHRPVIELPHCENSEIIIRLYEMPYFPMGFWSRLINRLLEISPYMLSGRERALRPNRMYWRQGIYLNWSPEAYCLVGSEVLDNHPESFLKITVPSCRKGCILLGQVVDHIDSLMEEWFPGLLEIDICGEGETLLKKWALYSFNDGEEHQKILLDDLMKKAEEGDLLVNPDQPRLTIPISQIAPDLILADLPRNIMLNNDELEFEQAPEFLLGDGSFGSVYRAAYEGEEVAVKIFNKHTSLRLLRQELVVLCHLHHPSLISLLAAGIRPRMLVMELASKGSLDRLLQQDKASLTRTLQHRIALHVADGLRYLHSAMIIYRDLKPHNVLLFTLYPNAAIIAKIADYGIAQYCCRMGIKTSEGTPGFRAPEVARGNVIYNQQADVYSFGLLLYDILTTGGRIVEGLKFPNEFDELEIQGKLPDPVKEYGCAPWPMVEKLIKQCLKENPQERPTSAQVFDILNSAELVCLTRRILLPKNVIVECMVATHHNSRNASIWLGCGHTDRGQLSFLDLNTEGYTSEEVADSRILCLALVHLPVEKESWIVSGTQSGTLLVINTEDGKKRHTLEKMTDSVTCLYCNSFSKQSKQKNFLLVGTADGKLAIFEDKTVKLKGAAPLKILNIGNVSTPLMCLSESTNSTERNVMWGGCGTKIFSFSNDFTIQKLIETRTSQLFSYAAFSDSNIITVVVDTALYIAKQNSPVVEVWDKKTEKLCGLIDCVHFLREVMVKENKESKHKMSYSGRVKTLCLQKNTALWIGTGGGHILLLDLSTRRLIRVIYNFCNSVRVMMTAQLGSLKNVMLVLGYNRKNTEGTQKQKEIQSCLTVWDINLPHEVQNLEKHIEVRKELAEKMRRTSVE", "assay": "Inhibition of LRRK2 in human AHE cells assessed as reduction in Ser935 phosphorylation", "assay_type": "cell-based, Lymphoblastoid cell"}, "[4]": {"target": "Activated CDC42 kinase 1 (Homo sapiens) (UniProt Q07912)", "assay": "Inhibition of ACK1 (unknown origin) assessed as residual activity at 1 uM relative to control"}, "[5]": {"target": "ALK tyrosine kinase receptor (Homo sapiens) (UniProt Q9UM73)", "assay": "Inhibition of wild-type human partial length ALK (I1088 to E1409 residues) expressed in mammalian expression system assessed as residual activity at 1 uM by Kinomescan method relative to control"}, "[6]": {"target": "Aurora kinase B (Homo sapiens) (UniProt Q96GD4)", "assay": "Inhibition of wild-type human partial length AURKB (D25 to A303 residues) expressed in mammalian expression system assessed as residual activity at 1 uM by Kinomescan method relative to control"}, "[7]": {"target": "Cytoplasmic tyrosine-protein kinase BMX (Homo sapiens) (UniProt P51813)", "assay": "Inhibition of wild-type human full length BMX (M1 to H675 residues) expressed in bacterial expression system assessed as residual activity at 1 uM by Kinomescan method relative to control"}, "[8]": {"target": "Calcium/calmodulin-dependent protein kinase kinase 1 (Homo sapiens) (UniProt Q8N5S9)", "assay": "Inhibition of wild-type human partial length CAMKK1 (R65 to E414 residues) expressed in bacterial expression system assessed as residual activity at 1 uM by Kinomescan method relative to control"}, "[9]": {"target": "Tyrosine-protein kinase CSK (Homo sapiens) (UniProt P41240)", "assay": "Inhibition of wild-type human full length CSK (M1 to L450 residues) expressed in bacterial expression system assessed as residual activity at 1 uM by Kinomescan method relative to control"}, "[10]": {"target": "Myotonin-protein kinase (Homo sapiens) (UniProt Q09013)", "sequence (Q09013 whole entry, the tested form may be a part)": "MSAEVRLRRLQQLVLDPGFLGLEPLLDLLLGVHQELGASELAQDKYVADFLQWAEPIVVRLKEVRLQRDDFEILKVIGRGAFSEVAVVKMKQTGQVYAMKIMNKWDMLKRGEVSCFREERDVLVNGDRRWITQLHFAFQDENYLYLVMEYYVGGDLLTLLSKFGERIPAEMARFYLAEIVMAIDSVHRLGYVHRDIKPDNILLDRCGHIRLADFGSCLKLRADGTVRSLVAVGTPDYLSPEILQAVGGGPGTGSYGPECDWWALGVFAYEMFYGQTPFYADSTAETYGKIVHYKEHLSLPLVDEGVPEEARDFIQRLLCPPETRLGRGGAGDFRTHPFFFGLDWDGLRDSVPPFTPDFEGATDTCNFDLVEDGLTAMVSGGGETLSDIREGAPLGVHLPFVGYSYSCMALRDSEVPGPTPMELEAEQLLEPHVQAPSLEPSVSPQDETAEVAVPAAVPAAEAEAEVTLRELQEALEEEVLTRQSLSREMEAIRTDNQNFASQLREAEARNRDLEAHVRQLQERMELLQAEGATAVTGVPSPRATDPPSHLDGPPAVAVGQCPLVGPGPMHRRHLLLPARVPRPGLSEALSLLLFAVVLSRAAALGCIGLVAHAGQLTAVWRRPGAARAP", "assay": "Inhibition of wild-type human partial length DMPK (V47 to V415 residues) expressed in bacterial expression system assessed as residual activity at 1 uM by Kinomescan method relative to control"}, "[11]": {"target": "Serine/threonine-protein kinase 17A (Homo sapiens) (UniProt Q9UEE5)", "assay": "Inhibition of wild-type human partial length DRAK1 (R32 to E363 residues) expressed in bacterial expression system assessed as residual activity at 1 uM by Kinomescan method"}, "[12]": {"target": "Ephrin type-A receptor 5 (Homo sapiens) (UniProt P54756)", "assay": "Inhibition of wild-type human partial length EPHA5 (T627 to V930 residues) expressed in bacterial expression system assessed as residual activity at 1 uM by Kinomescan method relative to control"}, "[13]": {"target": "Fibroblast growth factor receptor 3 (Homo sapiens) (UniProt P22607)", "sequence (P22607 23-806 limits assumed)": "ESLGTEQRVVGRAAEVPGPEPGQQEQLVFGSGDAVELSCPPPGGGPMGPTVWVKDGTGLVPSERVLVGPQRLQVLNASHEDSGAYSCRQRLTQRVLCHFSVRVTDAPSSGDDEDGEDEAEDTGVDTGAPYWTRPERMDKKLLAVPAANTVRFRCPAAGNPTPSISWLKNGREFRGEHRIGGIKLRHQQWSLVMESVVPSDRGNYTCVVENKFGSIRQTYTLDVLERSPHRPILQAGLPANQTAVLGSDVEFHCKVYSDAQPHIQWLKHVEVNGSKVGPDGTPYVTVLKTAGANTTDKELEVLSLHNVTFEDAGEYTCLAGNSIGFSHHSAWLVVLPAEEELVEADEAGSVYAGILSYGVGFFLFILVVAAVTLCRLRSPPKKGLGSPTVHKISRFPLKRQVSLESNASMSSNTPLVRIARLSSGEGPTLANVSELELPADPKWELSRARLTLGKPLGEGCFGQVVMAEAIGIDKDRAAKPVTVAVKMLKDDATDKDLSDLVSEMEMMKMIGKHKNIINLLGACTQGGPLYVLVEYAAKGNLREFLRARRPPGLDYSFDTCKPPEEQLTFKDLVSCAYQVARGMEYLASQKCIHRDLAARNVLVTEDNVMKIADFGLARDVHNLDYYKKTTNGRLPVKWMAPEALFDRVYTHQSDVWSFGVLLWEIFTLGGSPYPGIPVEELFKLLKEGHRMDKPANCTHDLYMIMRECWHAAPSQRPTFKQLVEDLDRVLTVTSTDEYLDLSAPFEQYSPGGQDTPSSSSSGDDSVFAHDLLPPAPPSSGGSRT", "assay": "Inhibition of wild-type human partial length FGFR3 (R442 to S771 residues) expressed in bacterial expression system assessed as residual activity at 1 uM by Kinomescan method relative to control"}, "[14]": {"target": "Vascular endothelial growth factor receptor 3 (Homo sapiens) (UniProt P35916)", "assay": "Inhibition of wild-type human partial length FLT4 (E821 to E1196 residues) expressed in bacterial expression system assessed as residual activity at 1 uM by Kinomescan method relative to control"}, "[15]": {"target": "Serine/threonine-protein kinase haspin (Homo sapiens) (UniProt Q8TF76)", "assay": "Inhibition of wild-type human partial length HASPIN (I452 to K798 residues) expressed in mammalian expression system assessed as residual activity at 1 uM by Kinomescan method relative to control"}, "[16]": {"target": "Tyrosine-protein kinase HCK (Homo sapiens) (UniProt P08631)", "assay": "Inhibition of wild-type human full length HCK (M22 to P526 residues) expressed in bacterial expression system assessed as residual activity at 1 uM by Kinomescan method relative to control"}, "[17]": {"target": "Mitogen-activated protein kinase 8 (Homo sapiens) (UniProt P45983)", "assay": "Inhibition of wild-type human full length JNK1 (M1 to Q384 residues) expressed in mammalian expression system assessed as residual activity at 1 uM by Kinomescan method relative to control"}, "[18]": {"target": "Serine/threonine-protein kinase Nek11 (Homo sapiens) (UniProt Q8NG66)", "assay": "Inhibition of wild-type human partial length NEK11 (M1 to E313 residues) expressed in mammalian expression system assessed as residual activity at 1 uM by Kinomescan method relative to control"}, "[19]": {"target": "Serine/threonine-protein kinase MARK1 (Homo sapiens) (UniProt Q9P0L2)", "assay": "Inhibition of wild-type human partial length MARK1 (Q30 to T341 residues) expressed in bacterial expression system assessed as residual activity at 1 uM by Kinomescan method relative to control"}, "[20]": {"target": "Ribosomal protein S6 kinase beta-2 (Homo sapiens) (UniProt Q9UBS0)", "assay": "Inhibition of RPS6KB2 (unknown origin) assessed as residual activity at 1 uM by Kinomescan method relative to control"}, "[21]": {"target": "PAS domain-containing serine/threonine-protein kinase (Homo sapiens) (UniProt Q96RG2)", "assay": "Inhibition of wild-type human partial length PASK (E942 to G1265 residues) expressed in mammalian expression system assessed as residual activity at 1 uM by Kinomescan method relative to control"}, "[22]": {"target": "Serine/threonine-protein kinase D3 (Homo sapiens) (UniProt O94806)", "assay": "Inhibition of wild-type human partial length PRKD3 (S543 to E863 residues) expressed in bacterial expression system assessed as residual activity at 1 uM by Kinomescan method relative to control"}, "[23]": {"target": "Protein kinase C zeta type (Homo sapiens) (UniProt Q05513)", "sequence (Q05513 whole entry)": "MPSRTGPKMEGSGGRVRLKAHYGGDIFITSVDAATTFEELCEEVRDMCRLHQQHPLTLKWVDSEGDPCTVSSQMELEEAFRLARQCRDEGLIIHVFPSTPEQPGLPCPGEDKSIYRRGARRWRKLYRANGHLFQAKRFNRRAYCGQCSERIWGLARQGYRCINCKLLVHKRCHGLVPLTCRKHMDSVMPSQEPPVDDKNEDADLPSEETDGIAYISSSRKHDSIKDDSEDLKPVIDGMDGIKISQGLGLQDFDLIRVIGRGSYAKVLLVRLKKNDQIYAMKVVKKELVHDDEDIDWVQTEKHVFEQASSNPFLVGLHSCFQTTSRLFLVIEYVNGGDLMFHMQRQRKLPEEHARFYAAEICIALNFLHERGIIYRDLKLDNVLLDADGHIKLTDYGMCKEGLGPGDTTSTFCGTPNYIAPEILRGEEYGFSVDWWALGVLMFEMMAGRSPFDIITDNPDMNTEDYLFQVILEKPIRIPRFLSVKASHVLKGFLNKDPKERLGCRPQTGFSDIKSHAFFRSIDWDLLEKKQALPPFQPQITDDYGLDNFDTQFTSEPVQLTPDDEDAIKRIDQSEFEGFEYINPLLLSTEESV", "assay": "Inhibition of PKCzeta (unknown origin) assessed as residual activity at 1 uM by Kinomescan method relative to control"}, "[24]": {"target": "TGF-beta receptor type-2 (Homo sapiens) (UniProt P37173)", "assay": "Inhibition of wild-type human partial length TGFBR2 (I218 to K567 residues) expressed in bacterial expression system assessed as residual activity at 1 uM by Kinomescan method relative to control"}, "[25]": {"target": "Serine/threonine-protein kinase ULK3 (Homo sapiens) (UniProt Q6PHR2)", "sequence (Q6PHR2 whole entry, the tested form may be a part)": "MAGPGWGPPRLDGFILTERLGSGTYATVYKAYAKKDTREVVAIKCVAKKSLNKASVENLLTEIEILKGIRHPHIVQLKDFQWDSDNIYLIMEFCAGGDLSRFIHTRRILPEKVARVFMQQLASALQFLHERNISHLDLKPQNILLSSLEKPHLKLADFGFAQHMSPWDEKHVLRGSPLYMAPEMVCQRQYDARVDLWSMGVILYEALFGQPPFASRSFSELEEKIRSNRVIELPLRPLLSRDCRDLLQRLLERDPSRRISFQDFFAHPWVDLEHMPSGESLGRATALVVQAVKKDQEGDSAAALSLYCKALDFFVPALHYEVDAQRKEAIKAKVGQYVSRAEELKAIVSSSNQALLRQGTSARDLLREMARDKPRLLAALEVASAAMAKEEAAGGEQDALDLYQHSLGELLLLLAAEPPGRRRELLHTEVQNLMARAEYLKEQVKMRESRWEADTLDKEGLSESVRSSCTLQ", "assay": "Inhibition of wild-type human partial length ULK3 (M1 to Q290 residues) expressed in mammalian expression system assessed as residual activity at 1 uM by Kinomescan method relative to control"}, "[26]": {"target": "Serine/threonine-protein kinase MRCK gamma (Homo sapiens) (UniProt Q6DT37)", "assay": "Inhibition of wild-type human partial length DMPK2 (S46 to S408 residues) expressed in bacterial expression system assessed as residual activity at 1 uM by Kinomescan method relative to control"}, "[27]": {"target": "Serine/threonine-protein kinase PLK4 (Homo sapiens) (UniProt O00444)", "assay": "Inhibition of wild-type human partial length PLK4 (M1 to S273 residues) expressed in mammalian expression system assessed as residual activity at 1 uM by Kinomescan method relative to control"}},
  "data": [
    {"smiles": "CCOc1nc(Nc2ccc(C(=O)N3CCOCC3)cc2OC)nc2[nH]ccc12", "values": [
      {"measurement": "AUCt/dose", "setting": "[1]", "result": 1034, "unit": "ng·h/g/mg/kg"},
      {"measurement": "fraction unbound", "setting": "[2]", "result": 0.01},
      {"measurement": "IC50", "setting": "[3]", "result": 31.6, "unit": "nM"},
      {"measurement": "Activity", "setting": "[4]", "result": 27.9, "unit": "%"},
      {"measurement": "Activity", "setting": "[5]", "result": 7.52, "unit": "%"},
      {"measurement": "Activity", "setting": "[6]", "result": 90.7, "unit": "%"},
      {"measurement": "Activity", "setting": "[7]", "result": 92.5, "unit": "%"},
      {"measurement": "Activity", "setting": "[8]", "result": 101, "unit": "%"},
      {"measurement": "Activity", "setting": "[9]", "result": 104, "unit": "%"},
      {"measurement": "Activity", "setting": "[10]", "result": 103, "unit": "%"},
      {"measurement": "Activity", "setting": "[11]", "result": 97.9, "unit": "%"},
      {"measurement": "Activity", "setting": "[12]", "result": 103, "unit": "%"},
      {"measurement": "Activity", "setting": "[13]", "result": 103, "unit": "%"},
      {"measurement": "Activity", "setting": "[14]", "result": 106, "unit": "%"},
      {"measurement": "Activity", "setting": "[15]", "result": 89.5, "unit": "%"},
      {"measurement": "Activity", "setting": "[16]", "result": 87.2, "unit": "%"},
      {"measurement": "Activity", "setting": "[17]", "result": 40.5, "unit": "%"},
      {"measurement": "Activity", "setting": "[18]", "result": 86.5, "unit": "%"},
      {"measurement": "Activity", "setting": "[19]", "result": 98.5, "unit": "%"},
      {"measurement": "Activity", "setting": "[20]", "result": 98.9, "unit": "%"},
      {"measurement": "Activity", "setting": "[21]", "result": 98.4, "unit": "%"},
      {"measurement": "Activity", "setting": "[22]", "result": 63.7, "unit": "%"},
      {"measurement": "Activity", "setting": "[23]", "result": 99.9, "unit": "%"},
      {"measurement": "Activity", "setting": "[24]", "result": 104, "unit": "%"},
      {"measurement": "Activity", "setting": "[25]", "result": 82, "unit": "%"},
      {"measurement": "Activity", "setting": "[26]", "result": 106, "unit": "%"},
      {"measurement": "Activity", "setting": "[27]", "result": 58.8, "unit": "%"}
    ]}
  ]
}
